Where two headings read alike, the source gives them in different places. Marks after values point to notes of the source that are not given here.
Columns and labels:
plasma protein [1] = conditions: cited from earlier work
PSMA = target: PSMA; parameters: method as in PMID 19706750, PMID 23733925; conditions: strongest affinity of all PSMA binders tested; cited from earlier work
LNCaP or PC3 xenografts = tested on: LNCaP or PC3 xenografts; parameters: method as in PMID 19706750, PMID 23733925; conditions: cited from earlier work; for TBR (tumor to muscle ratio) / blood concentration: 4 h post-injection; for TBR (tumor to muscle ratio): calculated from published tumor and skeletal muscle uptake
plasma protein [2] = experiment: Plasma protein binding by Rapid Equilibrium Dialysis (RED); type: in vitro ADME; conditions: 12 kDa plate
Text: Plasma protein interactions were quantified for commonly used, commercially available far-red and near-infrared fluorescent dyes. For IRDye 800CW, ZW800, BODIPY 650, Alexa Fluor 680, and integrin conjugates, a Rapid Equilibrium Dialysis (RED) plate (Thermo Scientific) was used following the manufacturer’s protocol.
Rapid Equilibrium Dialysis (RED) was used to quantify plasma protein binding
for various fluorescent dyes (carboxylate form) and fluorescent conjugates.
are available with membrane molecular weight cutoffs of either 8 kDa or 12 kDa.
that many of the fluorescent conjugates are >1 kDa, the 12 kDa plate were used to reduce
The 12 kDa RED plate gave

In the case of `CC1(C)C(/C=C/C=C/C=C/C=C2\N(CCCCS(=O)(=O)[O-])c3ccc4ccccc4c3C2(C)C)=[N+](CCCCS(=O)(=O)[O-])c2ccc3ccccc3c21.[Na+]` [ICG dye], the “% Plasma Protein Bound” value (plasma protein [1]; estimates based on a subsaturating concentration of ICG) is listed as 99.5–99.975 ^* %.

For `O=C([O-])CN(CCN(CC(=O)[O-])CC(=O)[O-])CCN(CC(=O)[O-])CC(=O)[O-].[99Tc+4]` [99mTc-DTPA], the plasma protein binding (plasma protein [1]) is listed as under 5%.

In the case of `O=C(O)CC[C@H](NC(=O)N[C@@H](CCCCNC(=O)Nc1ccc(I)cc1)C(=O)O)C(=O)O` [MIP1095], the Kd (PSMA) is listed as 0.24 nM and the skeletal muscle uptake (LNCaP or PC3 xenografts; highest of the PSMA set) is listed as 0.26 %ID/g.

For Inulin, the plasma protein binding (plasma protein [1]; classic example, no reference given) is given as “no measurable plasma protein binding”.

For `O=C(O)CC[C@H](NC(=O)N[C@@H](CCCCNCc1ccc(I)cc1)C(=O)O)C(=O)O` [MIP1072], the “TBR (tumor to muscle ratio)” value (LNCaP or PC3 xenografts) is listed as 171 and the blood concentration (LNCaP or PC3 xenografts) is listed as 0.06 %ID/g.

With IRDye 800CW carboxylate the “% Plasma Protein Bound” value (plasma protein [2]) was 89 ± 3%.

In the case of `O=C(O)CC[C@H](NC(=O)N[C@@H](CCC(=O)NC(CCCCN(Cc1nccn1CC(=O)O)Cc1nccn1CC(=O)O)C(=O)O)C(=O)O)C(=O)O` (stereo partly shown) [MIP1427], the “TBR (tumor to muscle ratio)” value (LNCaP or PC3 xenografts) is listed as 31 and the blood concentration (LNCaP or PC3 xenografts) is listed as 0.28 %ID/g.

In the case of `O=C(O)CC[C@H](NC(=O)N[C@@H](CCC(=O)N[C@@H](CCCCN(Cc1nccn1CC(=O)N(CC(=O)O)CC(=O)O)Cc1nccn1CC(=O)N(CC(=O)O)CC(=O)O)C(=O)O)C(=O)O)C(=O)O` [MIP1404], the “TBR (tumor to muscle ratio)” value (LNCaP or PC3 xenografts) is listed as 157 and the blood concentration (LNCaP or PC3 xenografts) is listed as 0.02 %ID/g.

For `CC1(C)C(=CC=CC=CC=CC2=[N+](CCCCS(=O)(=O)[O-])c3ccc(C(=O)NC[C@H](O)[C@@H](O)[C@H](O)C(O)CO)cc3C2(C)C)N(CCCCS(=O)(=O)[O-])c2ccc(C(=O)NCC(O)C(O)C(O)[C@H](O)CO)cc21.[Na+]` (stereo partly shown) [SIDAG dye], the “% Plasma Protein Bound” value (plasma protein [1]; reported bound fraction in the plasma, discussed in SI) is given as 57 ^* %.

From article PMC4857130, “Mechanistic and quantitative insight into cell surface targeted molecular imaging agent design” (Scientific Reports, 2016)
